The target of the experiment is T1, RXFP1 (Homo sapiens, UniProt Q9HBX9).
T1 construct: OVCAR5 cells expressing endogenous RXFP1; endogenous in cells; host or cells: OVCAR5 cells
T1 sequence (Q9HBX9 1-757): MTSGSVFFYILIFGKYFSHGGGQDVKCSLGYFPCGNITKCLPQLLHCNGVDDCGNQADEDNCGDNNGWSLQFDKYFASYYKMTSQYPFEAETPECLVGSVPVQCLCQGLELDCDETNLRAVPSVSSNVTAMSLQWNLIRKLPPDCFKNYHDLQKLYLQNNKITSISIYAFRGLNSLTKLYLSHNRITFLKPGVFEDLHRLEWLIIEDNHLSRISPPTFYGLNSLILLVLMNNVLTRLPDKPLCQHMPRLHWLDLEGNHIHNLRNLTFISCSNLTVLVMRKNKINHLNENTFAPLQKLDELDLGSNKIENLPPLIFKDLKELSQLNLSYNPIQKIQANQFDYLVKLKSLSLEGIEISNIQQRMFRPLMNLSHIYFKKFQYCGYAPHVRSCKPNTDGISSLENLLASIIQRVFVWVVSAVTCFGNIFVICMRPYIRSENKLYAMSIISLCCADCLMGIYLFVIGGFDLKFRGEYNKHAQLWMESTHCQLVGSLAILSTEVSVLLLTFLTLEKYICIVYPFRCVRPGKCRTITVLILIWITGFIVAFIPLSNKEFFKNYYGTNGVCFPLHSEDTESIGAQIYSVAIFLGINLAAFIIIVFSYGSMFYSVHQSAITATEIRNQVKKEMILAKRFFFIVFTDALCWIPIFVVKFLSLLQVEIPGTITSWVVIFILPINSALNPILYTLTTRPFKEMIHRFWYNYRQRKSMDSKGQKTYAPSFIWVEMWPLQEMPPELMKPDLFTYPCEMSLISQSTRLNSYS
The experiment in a line: OVCAR5 cAMP assay (HTRF), RXFP1 agonist activity. The experiment is classed as cell-based. The conditions noted are these: for Emax: OVCAR-5, maximal cAMP relative to H2-relaxin maximum (100%), read-out: EMax, OVCAR 5 cells (cAMP); for EC50: OVCAR5 cells, cAMP HTRF, read-out: EC50 (nM), OVCAR 5 cells (cAMP). The essentials:
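OVCAR5 cells (endogenous RXFP1) pretreated 40 min at 37° C with 1 mM IBMX, then exposed to peptides in serum-free medium for 30 min at 37° C. Lysate cAMP read by HTRF; EC50 from variable-slope sigmoidal fit; Emax as % of H2-relaxin maximal cAMP in same run.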

*1 amine or outer side, *2 acyl side, *3 side chain or, on linkers, in order; H or OH if unused. Where a SMILES comes first, the peptide text is derived from it. Side-chain parts run from the residue outwards. [ ]: non-standard residue; d: D form. The star is where a group is joined. PEG12 = NCCOCCOCCOCCOCCOCCOCCOCCOCCOCCOCCOCCOCCC(=O)O; γGlu = O=C(O)[C@H](CCC(=O)[*:2])N[*:1]; 1Nal = N[C@@H](Cc1cccc2ccccc12)C(=O)O; Stearoyl = CCCCCCCCCCCCCCCCCC(=O)*; Palmitoyl = CCCCCCCCCCCCCCCC(=O)*; PEG4 = NCCOCCOCCOCCOCCC(=O)O; αMeK = C[C@](N)(CCCCN)C(=O)O; Nle = CCCC[C@H](N)C(=O)O; AEEA = NCCOCCOCC(=O)O; Aib = CC(C)(N)C(=O)O

As to `CCCCCCCCCCCCCCCCCC(=O)N[C@@H](CCC(=O)N[C@@H](CCC(=O)N[C@@H](CCC(=O)NCCCC[C@H](NC(=O)CCOCCOCCOCCOCCOCCOCCOCCOCCOCCOCCOCCOCCNC(=O)[C@H](CCCCN)NC(=O)[C@H](CCCCN)NC(=O)[C@H](CCCNC(=N)N)NC(=O)C(C)(C)NC(=O)[C@H](CO)NC(=O)[C@H](Cc1c[nH]c2ccccc12)NC(=O)[C@@H](NC(=O)[C@H](CO)NC(=O)[C@H](CCCC)NC(=O)CNC(=O)[C@H](CCC(=O)O)NC(=O)C(C)(C)NC(=O)C(C)(C)NC(=O)[C@@H](NC(=O)[C@H](CCC(N)=O)NC(=O)[C@H](C)NC(=O)[C@H](CCCNC(=N)N)NC(=O)[C@@H](NC(=O)[C@H](CCCCN)NC(=O)[C@H](CCC(=O)O)NC(=O)[C@H](CCCNC(=N)N)NC(=O)CNC(=O)[C@H](CCC(=O)O)NC(=O)[C@H](CC(C)C)NC(C)=O)C(C)C)[C@@H](C)CC)[C@@H](C)O)C(N)=O)C(=O)O)C(=O)O)C(=O)O` [compound 31] (Ac-LEGREKVRAQI[Aib][Aib]EG[Nle]STWS[Aib]RKK[PEG12]K([γGlu-γGlu-γGlu-Stearoyl])-NH2), the Emax turned out to be 86%.
Regarding `CCCCCCCCCCCCCCCC(=O)N[C@@H](CCC(=O)NCCOCCOCC(=O)N[C@@H](CCC(=O)N[C@@H](CCC(=O)NCCOCCOCC(=O)NCCOCCOCC(=O)NCCCC[C@H](NC(=O)[C@H](CCCCNC(C)=O)NC(=O)[C@H](CCCCN)NC(=O)[C@H](CCCNC(=N)N)NC(=O)C(C)(C)NC(=O)[C@H](CO)NC(=O)[C@H](Cc1c[nH]c2ccccc12)NC(=O)[C@@H](NC(=O)[C@H](CO)NC(=O)[C@H](CCCC)NC(=O)CNC(=O)[C@H](CCC(=O)O)NC(=O)C(C)(C)NC(=O)C(C)(C)NC(=O)[C@@H](NC(=O)[C@H](CCCCNC(C)=O)NC(=O)[C@H](C)NC(=O)[C@H](CCCNC(=N)N)NC(=O)[C@@H](NC(=O)[C@H](CCCCN)NC(=O)[C@H](CCC(=O)O)NC(=O)[C@H](CCCNC(=N)N)NC(=O)CNC(=O)[C@H](CCC(=O)O)NC(=O)[C@H](CC(C)C)NC(C)=O)C(C)C)[C@@H](C)CC)[C@@H](C)O)C(N)=O)C(=O)O)C(=O)O)C(=O)O` [compound 165] (Ac-LEGREKVRAK(Ac)I[Aib][Aib]EG[Nle]STWS[Aib]RKK(Ac)K([AEEA-AEEA-γGlu-γGlu-AEEA-γGlu-Palmitoyl])-NH2), the EC50 was determined as 0.38 nM and the Emax amounted to 105%.
In the same order, the values of `CCCCCCCCCCCCCCCC(=O)N[C@@H](CCC(=O)N[C@@H](CCC(=O)N[C@@H](CCC(=O)NCCOCCOCC(=O)NCCOCCOCC(=O)NCCOCCOCC(=O)NCCOCCOCC(=O)NCCCC[C@H](NC(=O)[C@H](CCCCNC(C)=O)NC(=O)[C@H](CCCCN)NC(=O)[C@H](CCCNC(=N)N)NC(=O)C(C)(C)NC(=O)[C@H](CO)NC(=O)[C@H](Cc1c[nH]c2ccccc12)NC(=O)[C@@H](NC(=O)[C@H](CO)NC(=O)[C@H](CCCC)NC(=O)CNC(=O)[C@H](CCC(=O)O)NC(=O)C(C)(C)NC(=O)C(C)(C)NC(=O)[C@@H](NC(=O)[C@H](CCCCNC(C)=O)NC(=O)[C@H](C)NC(=O)[C@H](CCCNC(=N)N)NC(=O)[C@@H](NC(=O)[C@H](CCCCN)NC(=O)[C@H](CCC(=O)O)NC(=O)[C@H](CCCNC(=N)N)NC(=O)CNC(=O)[C@H](CCC(=O)O)NC(=O)[C@H](CC(C)C)NC(C)=O)C(C)C)[C@@H](C)CC)[C@@H](C)O)C(N)=O)C(=O)O)C(=O)O)C(=O)O` [compound 64] (Ac-LEGREKVRAK(Ac)I[Aib][Aib]EG[Nle]STWS[Aib]RKK(Ac)K([AEEA-AEEA-AEEA-AEEA-γGlu-γGlu-γGlu-Palmitoyl])-NH2) are 0.2 nM and 81%.
For the compound `CCCCCCCCCCCCCCCCCC(=O)N[C@@H](CCC(=O)NCCOCCOCC(=O)NCCOCCOCC(=O)NCCOCCOCC(=O)N[C@@H](CCC(=O)N[C@@H](CCC(=O)NCCCC[C@H](NC(=O)[C@H](CCCCN)NC(=O)[C@H](CCCCN)NC(=O)[C@H](CCCNC(=N)N)NC(=O)C(C)(C)NC(=O)[C@H](CO)NC(=O)[C@H](Cc1c[nH]c2ccccc12)NC(=O)[C@@H](NC(=O)[C@H](CO)NC(=O)[C@H](CCCC)NC(=O)CNC(=O)[C@H](CCC(=O)O)NC(=O)C(C)(C)NC(=O)C(C)(C)NC(=O)[C@@H](NC(=O)[C@H](CCC(N)=O)NC(=O)[C@H](C)NC(=O)[C@H](CCCNC(=N)N)NC(=O)[C@@H](NC(=O)[C@H](CCCCN)NC(=O)[C@H](CCC(=O)O)NC(=O)[C@H](CCCNC(=N)N)NC(=O)CNC(=O)[C@H](CCC(=O)O)NC(=O)[C@H](CC(C)C)NC(C)=O)C(C)C)[C@@H](C)CC)[C@@H](C)O)C(N)=O)C(=O)O)C(=O)O)C(=O)O` [compound 106] (Ac-LEGREKVRAQI[Aib][Aib]EG[Nle]STWS[Aib]RKKK([γGlu-γGlu-AEEA-AEEA-AEEA-γGlu-Stearoyl])-NH2), the Emax amounted to 93%.
For `CCCCCCCCCCCCCCCC(=O)N[C@@H](CCC(=O)N[C@@H](CCC(=O)N[C@@H](CCC(=O)N[C@@H](CCC(=O)NCCOCCOCC(=O)NCCOCCOCC(=O)NCCOCCOCC(=O)NCCOCCOCC(=O)NCCCC[C@H](NC(=O)[C@H](CCCCNC(C)=O)NC(=O)[C@H](C)NC(=O)[C@H](CCCNC(=N)N)NC(=O)[C@](C)(CCCCN)NC(=O)[C@H](CO)NC(=O)[C@H](Cc1ccccc1)NC(=O)[C@@H](NC(=O)[C@H](CO)NC(=O)[C@H](CCC(N)=O)NC(=O)CNC(=O)[C@H](CCC(=O)O)NC(=O)C(C)(C)NC(=O)C(C)(C)NC(=O)[C@@H](NC(=O)[C@H](CCCCNC(C)=O)NC(=O)[C@H](C)NC(=O)[C@H](CCCNC(=N)N)NC(=O)[C@@H](NC(=O)[C@H](CCCCN)NC(=O)[C@H](CCC(=O)O)NC(=O)[C@H](CCCNC(=N)N)NC(=O)CNC(=O)[C@H](CCC(=O)O)NC(=O)[C@H](CC(C)C)NC(C)=O)C(C)C)[C@@H](C)CC)[C@@H](C)O)C(N)=O)C(=O)O)C(=O)O)C(=O)O)C(=O)O` [compound 191] (Ac-LEGREKVRAK(Ac)I[Aib][Aib]EGQSTFS[αMeK]RAK(Ac)K([AEEA-AEEA-AEEA-AEEA-γGlu-γGlu-γGlu-γGlu-Palmitoyl])-NH2), the EC50 stood at 0.17 nM and the Emax was found to be 93%.
As for `CCCCCCCCCCCCCCCCCC(=O)N[C@@H](CCC(=O)N[C@@H](CCC(=O)N[C@@H](CCC(=O)NCCCC[C@H](NC(=O)CCOCCOCCOCCOCCNC(=O)[C@H](CCCCNC(C)=O)NC(=O)[C@H](CCCCN)NC(=O)[C@H](CCCNC(=N)N)NC(=O)C(C)(C)NC(=O)[C@H](CO)NC(=O)[C@H](Cc1c[nH]c2ccccc12)NC(=O)[C@@H](NC(=O)[C@H](CO)NC(=O)[C@H](CCCC)NC(=O)CNC(=O)[C@H](CCC(=O)O)NC(=O)C(C)(C)NC(=O)C(C)(C)NC(=O)[C@@H](NC(=O)[C@H](CCCCNC(C)=O)NC(=O)[C@H](C)NC(=O)[C@H](CCCNC(=N)N)NC(=O)[C@@H](NC(=O)[C@H](CCCCN)NC(=O)[C@H](CCC(=O)O)NC(=O)[C@H](CCCNC(=N)N)NC(=O)CNC(=O)[C@H](CCC(=O)O)NC(=O)[C@H](CC(C)C)NC(C)=O)C(C)C)[C@@H](C)CC)[C@@H](C)O)C(N)=O)C(=O)O)C(=O)O)C(=O)O` [compound 123] (Ac-LEGREKVRAK(Ac)I[Aib][Aib]EG[Nle]STWS[Aib]RKK(Ac)[PEG4]K([γGlu-γGlu-γGlu-Stearoyl])-NH2), the Emax amounted to 88%.
With `CCCCCCCCCCCCCCCCCC(=O)N[C@@H](CCC(=O)NCCOCCOCC(=O)N[C@@H](CCC(=O)N[C@@H](CCC(=O)N[C@@H](CCC(=O)NCCOCCOCC(=O)NCCOCCOCC(=O)NCCCC[C@H](NC(=O)[C@H](CCCCN)NC(=O)[C@H](CCCCN)NC(=O)[C@H](CCCNC(=N)N)NC(=O)C(C)(C)NC(=O)[C@H](CO)NC(=O)[C@H](Cc1cccc2ccccc12)NC(=O)[C@@H](NC(=O)[C@H](CO)NC(=O)[C@H](CCCC)NC(=O)CNC(=O)[C@H](CCC(=O)O)NC(=O)C(C)(C)NC(=O)C(C)(C)NC(=O)[C@@H](NC(=O)[C@H](CCCCNC(C)=O)NC(=O)[C@H](C)NC(=O)[C@H](CCCNC(=N)N)NC(=O)[C@@H](NC(=O)[C@H](CCCCN)NC(=O)[C@H](CCC(=O)O)NC(=O)[C@H](CCCNC(=N)N)NC(=O)CNC(=O)[C@H](CCC(=O)O)NC(=O)[C@H](CC(C)C)NC(C)=O)C(C)C)[C@@H](C)CC)[C@@H](C)O)C(N)=O)C(=O)O)C(=O)O)C(=O)O)C(=O)O` [compound 103] (Ac-LEGREKVRAK(Ac)I[Aib][Aib]EG[Nle]ST[1Nal]S[Aib]RKKK([AEEA-AEEA-γGlu-γGlu-γGlu-AEEA-γGlu-Stearoyl])-NH2), the EC50 is 0.09 nM and the Emax is 79%.

A word on the Emax: it is the greatest response seen or fitted, relative to the assay's reference. As a reminder, the EC50 is the concentration that produces a half-maximal response.
